# Experimental data: US8124793B2, “Derivatives of ethylene methanedisulfonate as cancer chemotherapeutic agents” (priority 2007, dated 2012)
# How the values were obtained:
# IGROVI = experiment: NCI screen, growth of human tumor cells: Ovarian Cancer IGROVI; type: cell-based; conditions: IGROVI (Ovarian Cancer), 10^−4 molar
# Procedure, shortened: (§1)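 The NCI screen tests each compound on human cancer cell lines and reports percent growth. Concentrations are given in molar units; the number of data points per compound is sixty at minimum.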
# RXF-393 = experiment: NCI screen, growth of human tumor cells: Renal Cancer RXF-393; type: cell-based; conditions: RXF-393 (Renal Cancer), 10^−4 molar
# Procedure, shortened: as §1
# HT29 = experiment: NCI screen, growth of human tumor cells: Colon Cancer HT29; type: cell-based; conditions: HT29 (Colon Cancer), 10^−4 molar
# Procedure, shortened: as §1
# SNB-75 = experiment: NCI screen, growth of human tumor cells: CNS Cancer SNB-75; type: cell-based
# Procedure, shortened: as §1
# MOLT-4 = experiment: NCI screen, growth of human tumor cells: Leukemia MOLT-4; type: cell-based; conditions: MOLT-4 (Leukemia), 10^−4 molar
# Procedure, shortened: as §1
# KM12 = experiment: NCI screen, growth of human tumor cells: Colon Cancer KM12; type: cell-based; conditions: KM12 (Colon Cancer), 10^−4 molar
# Procedure, shortened: as §1
# HCT-116 = experiment: NCI screen, growth of human tumor cells: Colon Cancer HCT-116; type: cell-based; conditions: HCT-116 (Colon Cancer), 10^−4 molar
# Procedure, shortened: as §1
# OVCAR-8 = experiment: NCI screen, growth of human tumor cells: Ovarian Cancer OVCAR-8; type: cell-based; conditions: OVCAR-8 (Ovarian Cancer), 10^−4 molar
# Protocol: (§2) In the NCI screening process, each compound was tested and described by a minimum of 60 data points. The test data include, but are not limited to the type of cancer, the molar concentration used in the screen, and the percent growth of the cancer. In some cases, NMR and elemental analysis were used for structural assignment.
# DU-145 = experiment: NCI screen, growth of human tumor cells: Prostate Cancer DU-145; type: cell-based; conditions: DU-145 (Prostate Cancer), 10^−4 molar
# Procedure, shortened: as §1
# UACC-257 = experiment: NCI screen, growth of human tumor cells: Melanoma UACC-257; type: cell-based; conditions: UACC-257 (Melanoma), 10^−4 molar
# Procedure, shortened: as §1
# HOP-62 = experiment: NCI screen, growth of human tumor cells: Non-Small Cell Lung HOP-62; type: cell-based; conditions: HOP-62 (Non-Small Cell Lung), 10^−4 molar
# Procedure, shortened: as §1
# 786-0 = experiment: NCI screen, growth of human tumor cells: Renal Cancer 786-0; type: cell-based; conditions: 786-0 (Renal Cancer), 10^−4 molar
# Procedure, shortened: as §1
# NCI-H460 = experiment: NCI screen, growth of human tumor cells: Non-Small Cell Lung NCI-H460; type: cell-based
# Procedure, shortened: as §1
# HCT-15 = experiment: NCI screen, growth of human tumor cells: Colon Cancer HCT-15; type: cell-based; conditions: HCT-15 (Colon Cancer), 10^−4 molar
# Procedure, shortened: as §1
# SK-OV-3 = experiment: NCI screen, growth of human tumor cells: Ovarian Cancer SK-OV-3; type: cell-based; conditions: SK-OV-3 (Ovarian Cancer), 10^−4 molar
# Procedure, shortened: as §1
# SK-MEL-5 = experiment: NCI screen, growth of human tumor cells: Melanoma SK-MEL-5; type: cell-based; conditions: SK-MEL-5 (Melanoma), 10^−4 molar
# Procedure, shortened: as §1
# MCF 7 = experiment: NCI screen, growth of human tumor cells: Breast Cancer MCF 7; type: cell-based; conditions: MCF 7 (Breast Cancer), 10^−4 molar
# Procedure, shortened: as §1
# NCI-H522 = experiment: NCI screen, growth of human tumor cells: Non-Small Cell Lung NCI-H522; type: cell-based; conditions: NCI-H522 (Non-Small Cell Lung), 10^−4 molar
# Procedure, shortened: as §1
# UACC-62 = experiment: NCI screen, growth of human tumor cells: Melanoma UACC-62; type: cell-based; conditions: UACC-62 (Melanoma), 10^−4 molar
# Procedure, shortened: as §1
# MCF7/ADR-RES = experiment: NCI screen, growth of human tumor cells: Breast Cancer MCF7/ADR-RES; type: cell-based; conditions: MCF7/ADR-RES (Breast Cancer), 10^−4 molar
# Procedure, shortened: as §1
# SF-295 = experiment: NCI screen, growth of human tumor cells: CNS Cancer SF-295; type: cell-based; conditions: SF-295 (CNS Cancer), 10^−4 molar
# Procedure, shortened: as §1
# SF-268 = experiment: NCI screen, growth of human tumor cells: CNS Cancer SF-268; type: cell-based; conditions: SF-268 (CNS Cancer), 10^−4 molar
# Procedure, shortened: as §1
# LOXIMVI = experiment: NCI screen, growth of human tumor cells: Melanoma LOXIMVI; type: cell-based; conditions: LOXIMVI (Melanoma), 10^−4 molar
# Procedure, shortened: as §1
# OVCAR-4 = experiment: NCI screen, growth of human tumor cells: Ovarian Cancer OVCAR-4; type: cell-based; conditions: OVCAR-4 (Ovarian Cancer), 10^−4 molar
# Procedure, shortened: as §1
# K562 = experiment: NCI screen, growth of human tumor cells: Leukemia K562; type: cell-based; conditions: K562 (Leukemia), 10^−4 molar
# Procedure, shortened: as §1
# HL-60 (TB) = experiment: NCI screen, growth of human tumor cells: Leukemia HL-60 (TB); type: cell-based; conditions: HL-60 (TB) (Leukemia), 10^−4 molar
# Protocol: as §2
# CCRF-CEM = experiment: NCI screen, growth of human tumor cells: Leukemia CCRF-CEM; type: cell-based; conditions: CCRF-CEM (Leukemia), 10^−4 molar
# Procedure, shortened: as §1
# RPMI-8226 = experiment: NCI screen, growth of human tumor cells: Leukemia RPMI-8226; type: cell-based; conditions: RPMI-8226 (Leukemia), 10^−4 molar
# Procedure, shortened: as §1
# CAKI-1 = experiment: NCI screen, growth of human tumor cells: Renal Cancer CAKI-1; type: cell-based; conditions: CAKI-1 (Renal Cancer), 10^−4 molar
# Procedure, shortened: as §1
# UO-31 = experiment: NCI screen, growth of human tumor cells: Renal Cancer UO-31; type: cell-based; conditions: UO-31 (Renal Cancer), 10^−4 molar
# Procedure, shortened: as §1
# ACHN = experiment: NCI screen, growth of human tumor cells: Renal Cancer ACHN; type: cell-based; conditions: ACHN (Renal Cancer), 10^−4 molar
# Procedure, shortened: as §1
# SN12C = experiment: NCI screen, growth of human tumor cells: Renal Cancer SN12C; type: cell-based; conditions: SN12C (Renal Cancer), 10^−4 molar
# Procedure, shortened: as §1
# human cancer cells = experiment: NCI screen summary over the cancers tested (negative growth of human cancer cells); type: cell-based; conditions: 10^−4 M conc.; cancers with negative growth / cancers tested
# Protocol: as §2
# The derivatives in the tables are grouped using the same category as in the tables 1-6.
# HS 578T = experiment: NCI screen, growth of human tumor cells: Breast Cancer HS 578T; type: cell-based; conditions: HS 578T (Breast Cancer), 10^−4 molar
# Procedure, shortened: as §1
# SF-539 = experiment: NCI screen, growth of human tumor cells: CNS Cancer SF-539; type: cell-based; conditions: SF-539 (CNS Cancer), 10^−4 molar
# Procedure, shortened: as §1
# AS49/ATCC = experiment: NCI screen, growth of human tumor cells: Non-Small Cell Lung AS49/ATCC; type: cell-based; conditions: AS49/ATCC (Non-Small Cell Lung), 10^−4 molar
# Procedure, shortened: as §1
# M14 = experiment: NCI screen, growth of human tumor cells: Melanoma M14; type: cell-based; conditions: M14 (Melanoma), 10^−4 molar
# Procedure, shortened: as §1
# MDA-N = experiment: NCI screen, growth of human tumor cells: Breast Cancer MDA-N; type: cell-based; conditions: 10^−4 molar
# Protocol: as §2
# OVCAR-3 = experiment: NCI screen, growth of human tumor cells: Ovarian Cancer OVCAR-3; type: cell-based; conditions: OVCAR-3 (Ovarian Cancer), 10^−4 molar
# Procedure, shortened: as §1
smiles,measurement,setting,value
"O=S1(=O)OCCOS(=O)(=O)C1C1c2ccccc2-c2ccccc21 [NSC 686562, ethylene 9-fluorenylmethanedisulfonate]",percent of growth of human tumor cells,IGROVI,16%
same,percent of growth of human tumor cells,RXF-393,25%
same,percent of growth of human tumor cells,HT29,26%
same,% Growth,"SNB-75; SNB-75, 10^−4 molar",−28%
same,% Growth,"SNB-75; SNB-75, 10^−5 molar",28%
same,% Growth,"SNB-75; SNB-75, 10^−6 molar",64%
same,percent of growth of human tumor cells,MOLT-4,−32%
same,percent of growth of human tumor cells,KM12,22%
same,percent of growth of human tumor cells,HCT-116,0%
same,percent of growth of human tumor cells,OVCAR-8,29%
same,percent of growth of human tumor cells,DU-145,9%
same,percent of growth of human tumor cells,UACC-257,28%
same,percent of growth of human tumor cells,HOP-62,5%
same,percent of growth of human tumor cells,786-0,2%
same,% Growth,"NCI-H460; NCI-H460, 10^−4 molar",−50%
same,% Growth,"NCI-H460; NCI-H460, 10^−5 molar",56%
same,percent of growth of human tumor cells,HCT-15,15%
same,melting point,,118 to 124 °C
same,percent of growth of human tumor cells,SK-OV-3,25%
same,percent of growth of human tumor cells,SK-MEL-5,4%
same,percent of growth of human tumor cells,MCF 7,23%
same,percent of growth of human tumor cells,NCI-H522,−19%
same,percent of growth of human tumor cells,UACC-62,10%
same,percent of growth of human tumor cells,MCF7/ADR-RES,−7%
same,percent of growth of human tumor cells,SF-295,22%
same,percent of growth of human tumor cells,SF-268,29%
same,percent of growth of human tumor cells,LOXIMVI,−27%
same,percent of growth of human tumor cells,OVCAR-4,−39%
same,percent of growth of human tumor cells,K562,16%
same,percent of growth of human tumor cells,HL-60 (TB),−20%
same,percent of growth of human tumor cells,CCRF-CEM,−3%
same,percent of growth of human tumor cells,RPMI-8226,9%
same,percent of growth of human tumor cells,CAKI-1,−1%
same,percent of growth of human tumor cells,UO-31,−3%
same,percent of growth of human tumor cells,ACHN,9%
same,percent of growth of human tumor cells,SN12C,28%
same,Percentage of cancers showing negative growth cancers tested,human cancer cells,10^−4 M conc. = 11/38 = 29%
same,percent of growth of human tumor cells,HS 578T,24%
same,percent of growth of human tumor cells,SF-539,10%
same,percent of growth of human tumor cells,AS49/ATCC,30%
same,percent of growth of human tumor cells,M14,23%
same,percent of growth of human tumor cells,MDA-N,17%
same,percent of growth of human tumor cells,OVCAR-3,25%
